Tests used:
[1] = tested on: ALDH isoforms; assay: BAAA isoform selectivity assay; assay type: biochemical, human; details: 18 μM BAAA, 20 units of each isoform
Protocol: BAAA activation was determined using UV/Vis spectroscopy. A 2 mM stock solution of BAAA was prepared in DMSO and activated with 2M HCL as described in the ALDEFLUOR™ Kit protocol ([…] Technologies Inc.). Immediately before measurement, BAAA was added to the reaction mixture described above to a final concentration of 18 μM. The solution was mixed vigorously, and the reaction proceeded at room temperature. UV/Vis absorbance spectra were taken from 300 to 500 nm every 30 seconds for 15 minutes. The rate of NADH produced per minute was calculated according to the absorbance at 340 nm (ε=[…] cm^−1). All measurements were performed in triplicate and reported as the average±standard deviation. 20 units of enzyme and 18 μM of BAAA were necessary to detect a significant increase in absorbance at 340 nm for the ALDH1A1 isoform.

[2] = Photophysical properties (absorbance, emission, extinction coefficient, quantum yield); assay type: physicochemical; details: Probes 1-8
[3] = target: T1, ALDH1A1 (Homo sapiens, UniProt P00352); assay: ALDH isoform selectivity of red probes: ALDH1A1; assay type: biochemical; details: Table 2
T1 construct: made in house
T1 sequence (P00352 1-501): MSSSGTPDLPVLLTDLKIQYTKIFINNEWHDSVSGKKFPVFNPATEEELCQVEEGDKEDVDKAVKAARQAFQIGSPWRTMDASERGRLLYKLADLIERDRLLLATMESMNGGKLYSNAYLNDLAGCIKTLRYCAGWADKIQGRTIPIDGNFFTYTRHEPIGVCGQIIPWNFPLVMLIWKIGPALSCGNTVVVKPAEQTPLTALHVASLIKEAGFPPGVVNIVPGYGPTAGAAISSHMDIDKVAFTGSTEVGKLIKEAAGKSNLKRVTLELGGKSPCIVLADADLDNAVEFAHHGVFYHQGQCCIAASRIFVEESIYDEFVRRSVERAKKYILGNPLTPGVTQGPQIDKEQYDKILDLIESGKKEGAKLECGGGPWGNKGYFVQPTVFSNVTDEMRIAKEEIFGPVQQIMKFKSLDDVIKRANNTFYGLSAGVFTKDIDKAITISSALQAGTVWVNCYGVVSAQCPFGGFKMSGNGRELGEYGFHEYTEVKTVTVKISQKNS
Protocol: (§1) Each ALDH isoform was added to a 50 mM triethanolamine solution (pH 7.4) containing 2.0 mM NAD^+ and 100 μM substrate at room temperature. Benzaldehyde was the substrate for ALDH3A1. Propanal was the substrate for all other isoforms. ALDH isoform activity was determined by monitoring the rate of NADH production through the increase in absorbance at 340 nm (ε=6220 M^−1cm^−1). For these assays, 1 unit is defined as the amount of enzyme that catalyzes the conversion of […] per minute. For every combination of dye and enzyme, 2 μM dye was preincubated with 2.0 mM NAD^+ in 50 mM triethanolamine solution (pH 7.4). The reaction was initiated by addition of 1 unit of ALDH. Dyes were excited at 590 nm, and fluorescence was measured continuously at 610 nm.

[4] = target: T2, ALDH1A3 (Homo sapiens, UniProt P47895); assay: ALDH isoform selectivity of red probes: ALDH1A3; assay type: biochemical; details: Table 2
T2 construct: made in house
T2 sequence (P47895 1-512): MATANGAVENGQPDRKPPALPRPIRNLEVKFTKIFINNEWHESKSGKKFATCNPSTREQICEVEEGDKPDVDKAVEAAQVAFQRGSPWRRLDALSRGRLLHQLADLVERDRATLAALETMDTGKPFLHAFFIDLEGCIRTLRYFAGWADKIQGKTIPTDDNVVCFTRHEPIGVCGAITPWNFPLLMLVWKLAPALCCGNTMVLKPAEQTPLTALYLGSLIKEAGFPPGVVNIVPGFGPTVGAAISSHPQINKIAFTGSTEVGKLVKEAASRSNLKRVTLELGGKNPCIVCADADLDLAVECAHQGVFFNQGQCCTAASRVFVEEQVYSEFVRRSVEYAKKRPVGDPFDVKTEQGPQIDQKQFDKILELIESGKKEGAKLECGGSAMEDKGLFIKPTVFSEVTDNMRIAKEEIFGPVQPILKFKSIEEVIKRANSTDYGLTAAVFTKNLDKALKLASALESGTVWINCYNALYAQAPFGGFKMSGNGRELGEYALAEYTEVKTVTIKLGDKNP
Protocol: as §1

[5] = target: T1, ALDH1A1; assay: ALDH isoform selectivity of red probes: ALDH1A1; assay type: biochemical

Q: For `Cc1cc(C)n2c1C=C1C=CC(CCC(=O)NCC=O)=[N+]1[B-]2(F)F` [BAAA, BODIPY-aminoacetaldehyde], which “reactivity with ALDH isoforms” value [1] is on record?
A: react with a variety of isoforms

Q: For `C[Si]1(C)C2=CC(=O)C=CC2=C(c2ccc(C=O)cc2C(F)(F)F)c2ccc(O)cc21` [Probe 3, 4-(7-Hydroxy-5,5-dimethyl-3-oxo-3,5-dihydrodibenzo[b, e]silin-10-yl)-3-(trifluoromethyl)benzaldehyde], which “Quantum Yield” value [2] is on record?
A: 0.25

Q: What about the “Enzyme Activity 1A1” value [3] of the same compound?
A: Medium

Q: And the “Enzymatic Turn On” value ([3]; ALDH1A1, 2 μM dye)?
A: 2.7

Q: And the “Enzyme Activity 1A3” value [4]?
A: Low

Q: And the “enzyme kinetics with ALDH1A1” value [5]?
A: slow enzyme kinetics

Reference: patent US11407725B2 (The Board of Trustees of the University of Illinois, priority 2018, dated 2022)
